Like-named read-outs stand apart in the source and are kept apart here.
Columns and labels:
L929 murine fibroblasts = test: Growth inhibition by 5-fluoroorotate, L929 murine fibroblasts (48 hours); type: cell-based; conditions: free drug mean of 4 determinations, liposomes from individual growth inhibition curves, read-out: IC50 (concentration of the drug that inhibits cell growth by 50%)
Method: (§1) All phospholipids (Avanti, Birmingham, Ala.) were used without further purification. Cholesterol (Sigma, St. Louis, Mo.) was recrystallized four times with methanol. All lipids were stored under argon in chloroform solution in sealed ampoules until use. Liposomes were prepared by reverse-phase evaporation (Szoka and Papahadjopoulos (1978) Proc. Natl. Acad. Sci. U.S.A. 75:4194-4198), and extrusion (Szoka et al. (1980) Biochem. et Biophys. Acta. 601:559-571). Small liposomes were made by extensive sonication of lipid suspensions. The unencapsulated drug was removed by gel filtration with Sephadex® G75 (Pharmacia). Lipid concentration was measured by phosporous analysis as described by Bartlett (1959) J. Biol. chem. 234:466-468. The encapsulated drug was measured using a molar extinction coefficient of 7100 in 0.1N HCl. A liposome sample was extracted (Bligh et al. (1959) Can. J. Biochem. Physiol. 37:[…]), the upper phase was acidified with HCl, and its absorbance was meausred. L929 murine fibroblasts and CV1-P cells were obtained and grown as previously described by Heath et al. (1983) Proc. Natl. Acad. Sci. U.S.A. 80:1377-1381 and Fraley et al. (1980) J. Biol. Chem. 255:10431-10435, respectively. The IC50 of the liposome preparations was measured by growth inhibition as previously described by Heath et al. (1983) supra. […]

CV1-P cells = test: Growth inhibition by 5-fluoroorotate, CV1-P cells (72 hours); type: cell-based; conditions: free drug mean of 3 determinations, liposomes from individual growth inhibition curves, read-out: IC50 (concentration of the drug that inhibits cell growth by 50%)
Method: as §1

Aqueous solubility = type: physicochemical; conditions: water, read-out: maximum aqueous solubility

## O=C(O)c1[nH]c(=O)[nH]c(=O)c1F [Free Drug, 5-fluoroorotate]
L929 murine fibroblasts; L929, 48 hours
  IC50: 1100 ± 300 nM
L929 murine fibroblasts; Mus musculus, L929, 48 h
  IC50: 1000 nM
CV1-P cells
  IC50: 7000 nM

## O=C([O-])c1[nH]c(=O)[nH]c(=O)c1F.[Li+] [lithium salt, lithium 5-fluoroorotate]
Aqueous solubility
  solubility: ≥ 50 mM

## O=C([O-])c1[nH]c(=O)[nH]c(=O)c1F.[Na+] [Sodium 5-fluoroorotate]
Aqueous solubility
  solubility: 15 mM
